Test results taken from patent US8609667B2, “E-type phenyl acrylic ester compounds containing substituted anilino pyrimidine group and uses thereof” (Sinochem Corporation, priority 2009, dated 2013).
Read-outs that look alike come from different tables or passages of the source.

Tests used:
citrus red mite = assay: Field trial against citrus red mite (Guilin, China); type: in vivo
Description: Field Trial Against Citrus Red Mite (Guilin, China)
The trial was carried out in a 2-year-old Shatang orange orchard in Chaotian town lingchuan county guilin city, trifoliate orange trees were selected as stocks, the intervals between two plants was 1.5×2.5 m, the average height was 1.45 m and the crown width was 1.30 m. Two trees were selected in each plot, with random arrangement and 4 replications. Compound 9 (15% SC) was set at two different doses (100 mg/L and 25 mg/L), and spirodiclofen (24% SC) was set at one dose (48 mg/L). Matabi Supergreen 16 Knapsack Sprayer 16 Liter was used to spray evenly with 2 L of spaying volume for each plant. The plants were treated once on 30 Oct. 2009, at that time, adults, nymphs and eggs of citrus red mite all existed, with adults/eggs=1/1.27. During the day the plants were treated, and the weather was good with the average temperature at 23° C. The first three days after treatment were all clear days. The number of mites was investigated before treatment and on the 1st, 3rd, 10th, 15th, 20th and 30th day after treatment respectively. Two trees of each plot were investigated according to the five directions of the tree crown (east, south, west, north and central), 5 leaves in each direction were investigated to calculate the number of living mites, with 50 leaves each plot. The decline rate of mite population and corrected efficacy were calculated according to formulas below: The decline rate of mite population(%)=[(the average number of mite on each leaf before treatment−the average number of mite on each leaf after treatment)/the average number of mite on each leaf before treatment]×100. Corrected efficacy(%)=[(the decline rate of mite population in treated area−the decline rate of mite population in untreated area)/(100−the decline rate of mite population in untreated area)]×100.

[1] = test system: adults of Tetranychus cinnabarinus; assay: Acaricidal activity against adults in greenhouse (spray on broadbean shoots, mortality after 72 hrs); type: in vivo; details: for control against adults of Tetranychus cinnabarinus: spray, 72 hrs
Description: (§1) The activity determinations of compounds of the present invention against adults, nymphs and eggs of Tetranychus cinnabarinus were carried out in greenhouse by the following procedures:
The activity determination against adults in greenhouse: the compounds were weighed and dissolved in acetone to obtain mother liquid, and then the mother liquid was diluted to required concentration with placed running water containing 0.1% of Tween 80. Broadbean shoots with two true leaves were used to inoculate adults of Tetranychus cinnabarinus which were counted, spraying treatment was performed by portable sprayer (DeVilbiss Atomizer M163), 3 replicates were set for each treatment. After treatment the broadbean shoots were maintained in standard observation room. Scores were conducted and mortalities were calculated after 72 hrs.

[2] = test system: eggs of Tetranychus cinnabarinus; assay: Activity against eggs in greenhouse (hatching inhibition rate); type: in vivo; details: Tetranychus cinnabarinus
Description: as §1
The activity determination against eggs in greenhouse: Broadbean shoots in pot with one true leaf retained were taken, ten healthy female adults of Tetranychus cinnabarinus were inoculated to the leaves, the adults were removed after 24 hrs and the eggs were counted and then sprayed. The treatment of test compounds and spaying method were the same as that of the activity determination in greenhouse against adults. Once eggs of blank control were all hatched after 5 days, unhatched eggs in each treatment were investigated and the hatching inhibition rate were calculated.

[3] = test system: nymphs of Tetranychus cinnabarinus; assay: Acaricidal activity against nymphs in greenhouse (spray, mortality after 72 hrs); type: in vivo
Description: as §1
The activity determination against nymphs in greenhouse: broadbean shoots with two true leaves in pot were taken, ten healthy female adults of Tetranychus cinnabarinus were inoculated to the leaves, the adults were removed after 24 hrs and the eggs were cultivated into nymphs after 7-10 days. The nymphs were counted and then sprayed. 3 replicates were set for each treatment. And then were maintained in standard observation room. Scores were conducted and mortalities were calculated after 72 hrs.

CO/C=C(/C(=O)OC)c1ccccc1COc1cc(C(F)(F)F)nc(Nc2ccc(Cl)cc2Cl)n1 [Compound 9]
Corrected efficacy (%) (citrus red mite; 25 mg/L (15% SC), the 1st day after treatment): 90% | Corrected efficacy (%) (citrus red mite; 25 mg/L (15% SC), the 3rd day after treatment): 92% | Corrected efficacy (%) (citrus red mite; 25 mg/L (15% SC), the 10th day after treatment): 83% | Corrected efficacy (%) (citrus red mite; 25 mg/L (15% SC), the 15th day after treatment): 91% | Corrected efficacy (%) (citrus red mite; 25 mg/L (15% SC), the 20th day after treatment): 92% | Corrected efficacy (%) (citrus red mite; 25 mg/L (15% SC), the 30th day after treatment): 91% | Corrected efficacy (%) (citrus red mite; 100 mg/L (15% SC), the 1st day after treatment): 92% | Corrected efficacy (%) (citrus red mite; 100 mg/L (15% SC), the 3rd day after treatment): 96% | Corrected efficacy (%) (citrus red mite; 100 mg/L (15% SC), the 10th day after treatment): 96% | Corrected efficacy (%) (citrus red mite; 100 mg/L (15% SC), the 15th day after treatment): 95% | Corrected efficacy (%) (citrus red mite; 100 mg/L (15% SC), the 20th day after treatment): 97% | Corrected efficacy (%) (citrus red mite; 100 mg/L (15% SC), the 30th day after treatment): 94% | mortality at 0.625 µg/mL ([1]; Tetranychus cinnabarinus, 0.625 mg/L, Table 7, read-out: mortalities of adults of Tetranychus cinnabarinus (%)): 88% | mortality at 1.25 µg/mL ([1]; Tetranychus cinnabarinus, 1.25 mg/L, Table 7, read-out: mortalities of adults of Tetranychus cinnabarinus (%)): 90% | mortality at 2.5 µg/mL ([1]; Tetranychus cinnabarinus, 2.5 mg/L, Table 7, read-out: mortalities of adults of Tetranychus cinnabarinus (%)): 98% | mortality at 5 µg/mL ([1]; Tetranychus cinnabarinus, 5 mg/L, Table 7, read-out: mortalities of adults of Tetranychus cinnabarinus (%)): 100% | mortality at 10 µg/mL ([1]; Tetranychus cinnabarinus, 10 mg/L, Table 7, read-out: mortalities of adults of Tetranychus cinnabarinus (%)): 100% | mortality at 40 µg/mL ([1]; Tetranychus cinnabarinus, 40 mg/L, Table 7, read-out: mortalities of adults of Tetranychus cinnabarinus (%)): 100% | control against adults of Tetranychus cinnabarinus ([1]; dose 5 mg/L): 100% | control against adults of Tetranychus cinnabarinus ([1]; dose 10 mg/L): 100% | control against adults of Tetranychus cinnabarinus ([1]; dose 40 mg/L): 100% | control against adults of Tetranychus cinnabarinus ([1]; dose 100 mg/L): 100% | inhibition at 0.625 µg/mL ([2]; 0.625 mg/L, Table 8, read-out: hatching inhibition rate against eggs (%)): 20% | inhibition at 2.5 µg/mL ([2]; 2.5 mg/L, Table 8, read-out: hatching inhibition rate against eggs (%)): 100% | inhibition at 10 µg/mL ([2]; 10 mg/L, Table 8, read-out: hatching inhibition rate against eggs (%)): 100% | inhibition at 2.5 µg/mL ([2]; dose 2.5 mg/L, read-out: hatching inhibition rate against eggs of Tetranychus cinnabarinus): ≥ 90% | inhibition at 10 µg/mL ([2]; dose 10 mg/L, read-out: hatching inhibition rate against eggs of Tetranychus cinnabarinus): 100% | control against nymphs of Tetranychus cinnabarinus ([3]; dose 0.63 mg/L): more than 95% | control against nymphs of Tetranychus cinnabarinus ([3]; dose 2.5 mg/L): 100%

CO/C=C(/C(=O)OC)c1ccccc1COc1nc(Nc2ccc(F)cc2F)nc2c1CCC2 [Compound 96]
melting point: 106 to 108 °C

CO/C=C(/C(=O)OC)c1ccccc1COc1nc(Nc2ccc(Cl)cc2Cl)nc2c1CCC2 [Compound 97]
melting point: 150 to 151 °C

CO/C=C(/C(=O)OC)c1ccccc1COc1nc(Nc2ccc(F)c(F)c2F)nc2c1CCC2 [Compound 103]
melting point: 118 to 120 °C

CO/C=C(/C(=O)OC)c1ccccc1COc1nc(Nc2ccc(Cl)c(C)c2Cl)nc2c1CCC2 [Compound 105]
melting point: 150 to 151 °C

CO/C=C(/C(=O)OC)c1ccccc1COc1nc(Nc2cccc(Cl)c2Cl)nc2c1CCC2 [Compound 128]
melting point: 132 to 134 °C
